Assays:
SARS-COV-2 = assay: Cytopathic effect (CPE) assay against COVID-19 in Vero E6 cells, neutral red uptake; type: cell-based; settings: 2 μg/mL quinacrine, 120 h p.i., at the 30% cytotoxic concentration
Protocol: The cytoprotective effect of quinacrine was determined by the cell viability, which is measured by the uptake of neutral red dye at A540.
In this study, the antiviral efficiency of quinacrine was evaluated against COVID-19 in vitro. Antiviral activity was evaluated using a cytopathic effect (CPE) assay, which determines the ability of the compound to prevent viral CPE in African green monkey kidney cells, Vero E6. Four dilutions of the test compound were evaluated, and the effective antiviral concentration was determined by regression analysis. The cytotoxicity of the test compound was determined in parallel by the neutral red cell cytotoxicity assay, a common method used to detect cell viability or drug cytotoxicity. CPE was determined by the uptake of neutral red dye. Quinacrine protects more than 80% of the infected cells from the cytopathic effects caused by COVID-19 at 2 μg/mL concentration (FIG. 8). The tissue distribution of quinacrine was investigated in a previous study by treating mice daily by oral gavage with 30 mg/kg of quinacrine (35% v/v ethanol in distilled water) dissolved in 100 μL total volume for 28 days.

[1] = tested on: Influenza A/California/07/2009 (H1N1); assay: Cytopathic effect (CPE) assay against Influenza A (H1N1), neutral red uptake; type: cell-based, Influenza A virus; settings: 2 μg/mL quinacrine; three days incubation
[2] = tested on: COVID-19 RNA G4s (SG1 and SG2); assay: UV-Vis absorption spectra of quinacrine with RNA G4; type: binding, SARS-COV-2; settings: SG1, SG2 at different concentrations; 10 mM Tris-HCl pH 7.6, 5 mM NaCl, 50 mM KCl
Description: UV-Vis spectroscopy is the most common and convenient technique to study the interaction between small molecules with nucleic acids, including RNA G4. Molecules containing aromatic chromophore groups interact with RNA G4, and the molecular interaction can be studied based on the changes in the absorption spectra. The hypochromic effect is a spectral property for RNA G4-drug interactions that are closely related to the G4 structure. […] With the addition of G4 RNA, the intensity at both 350 nm and 450 nm bands decreased, inducing the hypochromicity at these wavelengths (FIG. 7). This can be attributed to the decrease in the number of chromophores in solution due to the interaction of quinacrine with RNA G4.

RET G4 = assay: CD spectroscopy and CD melting curve of RET G4; type: binding
Protocol: In both graphs in FIG. 6, at the 260 wavelength lines in descending order are 20° C., 30° C., 40° C., 50° C., 60° C., 70° C., 80° C., and 90° C.
Quinacrine was further investigated as to whether it stabilizes the RET G4 structure using circular dichroism (CD) spectroscopic analysis. […] Next, the thermal stability of the G-quadruplex structure was examined by monitoring the CD melting curve in the absence and presence of quinacrine (5 equivalent) at increasing temperatures.

COVID-19 [3] = assay: Intravenous administration of quinacrine to a COVID-19 patient (Example 2); type: in vivo, human
Protocol: The following example describes treatment strategies for COVID-19 involving an intravenous administration of Quinacrine to a patient.
A person wakes up one morning with a fever of 102.4° F. and a tightness in their chest. They are an essential hospital worker and so believes they may have contracted COVID-19. Therefore, they call their primary care physician to determine their next steps. The primary care physician decides that they should be brought in for testing since they are at a higher risk for complications because the patient has severe asthma. The person gets a nose swab for the test. The doctor mentions that they will call the patient with the results as soon as possible. For now, the person is told to self-isolate and to monitor any changes in symptoms, calling if things get progressively worse. Quickly the person's condition deteriorates, and they begin to experience difficulty breathing and pressure in their chest. The doctor admits them to the ICU of the hospital because they require supplemental oxygen to maintain their oxygen levels. Shortly after being admitted to the ICU, the result of their test comes back positive for COVID-19. The ICU doctor gives the patient an intravenous injection of 200 mg initially every 6 hours for 5 doses, followed by 100 mg 3 times a day for 6 days. Alternatively, 100 mg is administered via IV infusion 3 times a day for 5 to 7 days. […]

[4] = mice; 30 mg/kg daily oral gavage; after 28 d of treatment; cited from earlier work
COVID-19 and influenza = assay: Oral administration of quinacrine for prevention of COVID-19 and influenza (Example 5); type: in vivo, human; settings: 300 mg orally twice a day for a month
Protocol: The following example describes prevention strategies for COVID-19 and influenza involving an oral administration of Quinacrine.
A person wants to prevent getting sick during the upcoming winter season. Therefore, they schedule an appointment with their primary care physician to discuss their options. At the appointment, the doctor recommends taking a 300 mg pill of quinacrine orally twice a day for the next month.

COVID-19 [5] = assay: Oral administration of quinacrine to a COVID-19 patient (Example 3); type: in vivo, human
Protocol: The following example describes treatment strategies for COVID-19 involving an oral administration of Quinacrine.
Recently, a COVID-19 test for a person has come back positive. […] After a week at the hospital, the patient's symptoms show no signs of improvement. The doctors at the hospital prescribe to the patient an initial 200 mg dose orally every 6 hours for 5 doses, followed by 100 mg 3 times a day for 6 days. Alternatively, 100 mg is orally administered to the patient after meals 3 times a day for 5 to 7 days. After a week and a half of taking quinacrine daily, the patient's symptoms improve. […] The patient is released from the hospital and is told to stay in self-isolation for another week.

RET G-quadruplex = assay: Taq DNA polymerase stop assay; type: biochemical; settings: quinacrine 0, 0.5, 1.0 and 2.0 μM
Protocol: DNA polymerase stop assay was performed at increasing concentrations of each drug. Lanes M represents the di-deoxy sequencing G-reactions with the same template, which serves as the marker to locate the exact stop site. Bands P, S, and F represent the position of the free primer, stop products by G-quadruplex structures, and full-length products, respectively, on the gel.
The G4-stabilizing effect of quinacrine was validated with the RET G4 as a model G4 using a DNA polymerase stop assay and CD spectroscopic studies. In this assay, the ligand mediated stabilization of the G-quadruplex structure arising from the DNA template prevents the progression of the Taq DNA polymerase during primer extension.

Compound: CCN(CC)CCCC(C)Nc1c2ccc(Cl)cc2nc2ccc(OC)cc12 (centres unmarked) [quinacrine]
- reduction of CPE due to SARS-COV-2 / protection of infected cells from cytopathic effects (SARS-COV-2): more than 80%
- protection of infected cells from cytopathic effects caused by Influenza A (H1N1) [1]: more than 80%
- absorbance intensity at 350 nm and 450 nm bands on addition of G4 RNA [2]: decreased
- positive CD peak at 262 nm (parallel G-quadruplex structure) (RET G4; in the presence of quinacrine): not affected
- melting temperature (Tm) of the RET G4 structure (RET G4; quinacrine 5 equivalent, increasing temperatures): significantly increased
- side effects (COVID-19 [3]; intravenous quinacrine, patient): No side effects
- clinical outcome (COVID-19 [3]; person, intravenous 200 mg every 6 hours for 5 doses, then 100 mg 3 times a day for 6 days, after a week): tests negative for COVID-19
- mean concentration in whole blood [4]: 470 ng/mL
- mean lung concentration [4]: 2600 ng/mL
- side effects (COVID-19 and influenza): No side effects
- prevention outcome (COVID-19 and influenza; person): without getting sick
- side effects (COVID-19 [5]; oral quinacrine, patient): No side effects
- clinical outcome (COVID-19 [5]; person, oral 200 mg every 6 hours for 5 doses, then 100 mg 3 times a day for 6 days): tests negative for COVID-19
- amount of arrested product (stop product by G-quadruplex) (RET G-quadruplex): dose-dependent increase

From patent publication US20240391876A1 (priority 2021, published 2024)
